Reference: US8513245B2, “Pharmaceutical composition for reducing the area of myocardial infarction and its use” (Changzhou Hi-Tech District Multiple Dimension Industry …, priority 2007, dated 2013)
Counter-ions that a name gives are not always drawn.

Tested on: rat model of AMI
Assay: Protective effect in rat model of AMI (coronary ligation, NBT staining, infarcted myocardium weight)
Type: in vivo
Conditions: for IMW / IMW/HW (%): SD male rats, 4 h after ligation

C[N+](C)(C)C[C@H](O)CC(=O)[O-] [LC, Levocarnitine]
reduction of IMW/HW (%) in comparison with solvent control group (900 mg/kg levocarnitine): 22.9% | IMW (LC 100 mg/kg i.p.): 139 ± 25.9 mg | IMW/HW (%) (LC 100 mg/kg i.p.): 16.8 ± 3.33% | IMW (LC 300 mg/kg i.p.): 141 ± 23.0 mg | IMW/HW (%) (LC 300 mg/kg i.p.): 17.2 ± 3.04% | IMW (LC 600 mg/kg i.p.): 139 ± 24.0 mg | IMW/HW (%) (LC 600 mg/kg i.p.): 16.8 ± 3.10 % | IMW (LC 900 mg/kg i.p.): 129 ± 23.8 mg | IMW/HW (%) (LC 900 mg/kg i.p.): 15.8 ± 3.10 %

COc1ccc(CN2CCNCC2)c(OC)c1OC [TMZ, trimetazidine hydrochloride]
reduction of IMW/HW (%) in comparison with solvent control group (9 mg/kg trimetazidine, control 24.5%): 34.7% | IMW (TMZ 1 mg/kg i.p.): 177 ± 20.2 mg | IMW/HW (%) (TMZ 1 mg/kg i.p.): 22.8 ± 3.40% | IMW (TMZ 3 mg/kg i.p.): 163 ± 20.2 mg | IMW/HW (%) (TMZ 3 mg/kg i.p.): 21.0 ± 2.60 % | IMW (TMZ 6 mg/kg i.p.): 132 ± 19.1 mg | IMW/HW (%) (TMZ 6 mg/kg i.p.): 17.0 ± 3.20 % | IMW (TMZ 9 mg/kg i.p.): 125 ± 15.2 mg | IMW/HW (%) (TMZ 9 mg/kg i.p., hydrochloride): 16.0 ± 2.50 % | IMW/HW (%) (TMZ 9 mg/kg i.p., listed as trimetazidine, hydrochloride): 16.0%
